Measurements reported in patent US20260325685A1, “Radiopharmaceutical Compositions Targeting Carbonic Anhydrase IX and Uses Thereof” (RayzeBio, Inc., priority 2023, published 2026).
Where two headings read alike, the source gives them in different places. One block for each molecule: values may come before it.

Columns and labels:
[1] = biological target: T1, human CA-XII (Homo sapiens, UniProt O43570); test: Surface Plasmon Resonance (SPR) binding kinetics to recombinant human CA-XII (Biacore 8K, single-cycle kinetics, 1:1 binding model)
T1 construct: purchased Creative BioMart CA12-261H
T1 sequence (O43570 25-354): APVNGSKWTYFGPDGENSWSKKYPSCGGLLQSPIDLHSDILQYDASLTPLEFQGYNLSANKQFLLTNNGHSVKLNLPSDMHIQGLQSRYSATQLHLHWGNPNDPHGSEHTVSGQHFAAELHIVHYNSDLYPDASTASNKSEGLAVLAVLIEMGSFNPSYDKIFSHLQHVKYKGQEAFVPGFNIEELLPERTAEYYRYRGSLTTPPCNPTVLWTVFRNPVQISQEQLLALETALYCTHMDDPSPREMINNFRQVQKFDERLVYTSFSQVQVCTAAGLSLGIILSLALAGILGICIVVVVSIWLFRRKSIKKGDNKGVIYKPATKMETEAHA
In short: (§1)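 Using captured protein at 1200-1800 RU, we injected compound at 100-0.39 nM in 1% DMSO buffer, pH 7.4, 25° C, then corrected curves for reference and DMSO to obtain rate constants.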

[2] = biological target: T2, human CA-IX (Homo sapiens, UniProt Q16790); test: Surface Plasmon Resonance (SPR) binding kinetics to recombinant human CA-IX (Biacore 8K, single-cycle kinetics, 1:1 binding model)
T2 construct: purchased Acro CA9-H82E3
In short: as §1

[3] = Chelated Metal: Lu-175, 25° C., pH 7.4, read-out: CAXII KD
[4] = Chelated Metal: Lu-175; SPR, 25° C., pH 7.4; read-out: CAIX KD
[5] = read-out: CAXII KD, Chelated Metal: Lu-175, 25° C., pH 7.4
[6] = read-out: CAIX KD; Chelated Metal: Lu-175; SPR, 25° C., pH 7.4

- Kd ([1]; Chelated Metal: None, 25° C., pH 7.4, read-out: CAXII KD): > 10 nM
- Kd ([2]; Chelated Metal: None; SPR, 25° C., pH 7.4; read-out: CAIX KD): < 1 nM
- Ratio (CAXII/CAIX) ([2]; KD ratio CAXII/CAIX; Chelated Metal: None): *** (10 < *** ≤ 50)
Structure (SMILES): CC(CCCC(=O)N1CCC(C(N)=O)(C(=O)NCC(=O)N[C@@H](CCCCn2cc(CCCC(=O)Nc3nnc(S(N)(=O)=O)s3)nn2)C(=O)NCCOCCOCCNC(=O)CN2CCN(CC(=O)O)CCN(CC(=O)O)CCN(CC(=O)O)CC2)CC1)(c1ccc(O)cc1)c1ccc(O)cc1 [Compound 102.3]

Structure (SMILES): NS(=O)(=O)c1nnc(NC(=O)C23CC(c4cn(C[C@H]5CN(C(=O)CN6CCN(CC(=O)O)CCN(CC(=O)O)CCN(CC(=O)O)CC6)CCN5C(=O)CNC(=O)C5(C(=O)O)CCN(C(=O)Cc6n[nH]c7ccccc67)CC5)nn4)(C2)C3)s1.[Lu+3] [Compound 112.17]
- Kd [1, 3]: 1 to 2.5 nM
- Kd [2, 4]: < 1 nM

Structure (SMILES): NS(=O)(=O)c1nnc(NC(=O)C23CC(c4cn(CCNC(=O)[C@@H]5CN(C(=O)CN6CCN(CC(=O)O)CCN(CC(=O)O)CCN(CC(=O)O)CC6)CCN5C(=O)CNC(=O)C5(C(=O)O)CCN(C(=O)CCC6CCCCCC6)CC5)nn4)(C2)C3)s1.[Lu+3] [Compound 112.7]
- Kd [1, 3]: > 10 nM
- Kd [2, 4]: < 1 nM

Structure (SMILES): NS(=O)(=O)c1nnc(NC(=O)C23CC(c4cn(CCNC(=O)[C@@H]5CN(C(=O)CN6CCN(CC(=O)O)CCN(CC(=O)O)CCN(CC(=O)O)CC6)CCN5C(=O)C[C@H](NC(=O)C[C@H](NC(=O)CCCc5ccc6c(c5)CCCC6)C(=O)O)C(=O)O)nn4)(C2)C3)s1.[Lu+3] [Compound 109.36]
- Kd [1, 3]: 2.5 to 10 nM
- Kd [2, 4]: 1 to 2.5 nM

Structure (SMILES): CC(CCC(=O)N[C@@H](CC(=O)N[C@@H](CC(=O)NC1(CCCCn2cc(CCC(=O)Nc3nnc(S(N)(=O)=O)s3)nn2)CCN(C(=O)OCCOCCNC(=O)CN2CCN(CC(=O)O)CCN(CC(=O)O)CCN(CC(=O)O)CC2)CC1)C(=O)O)C(=O)O)(c1ccc(O)cc1)c1ccc(O)cc1.[Lu+3] [Compound 116.4]
- Kd [1, 3]: > 10 nM
- Kd [2, 4]: 2.5 to 10 nM

Structure (SMILES): CC(CCC(=O)N[C@@H](CC(=O)N[C@@H](CC(=O)N1CCN(C(=O)CN2CCN(CC(=O)O)CCN(CC(=O)O)CCN(CC(=O)O)CC2)C[C@H]1C(=O)NCCn1nnc(C23CC(C(=O)Nc4nnc(S(N)(=O)=O)s4)(C2)C3)c1C(=O)O)C(=O)O)C(=O)O)(c1ccc(O)cc1)c1ccc(O)cc1.[Lu+3] [Compound 107.60]
- Kd [1, 3]: 2.5 to 10 nM
- Kd [2, 4]: < 1 nM

Structure (SMILES): CC(CCC(=O)N[C@@H](CC(=O)N[C@@H](CC(=O)N[C@@H](CCCCn1cc(C23CCC(C(=O)Nc4nnc(S(N)(=O)=O)s4)(CC2)C3)nn1)C(=O)N1CCC(NC(=O)CN2CCN(CC(=O)O)CCN(CC(=O)O)CCN(CC(=O)O)CC2)CC1)C(=O)O)C(=O)O)(c1ccc(O)cc1)c1ccc(O)cc1.[Lu+3] [Compound 100.12]
- Kd [1, 3]: < 1 nM
- Kd [2, 4]: < 1 nM

Structure (SMILES): CC(CCCC(=O)N1CCC(C(N)=O)(C(=O)NCC(=O)NC2(C(=O)NCCn3cc(C45CCC(c6cn7nc(S(N)(=O)=O)sc7n6)(CC4)CC5)nn3)CCN(C(=O)CC[C@H](C(=O)O)N3CCN(CC(=O)O)CCN(CC(=O)O)CCN(CC(=O)O)CC3)CC2)CC1)(c1ccc(O)cc1)c1ccc(O)cc1.[Lu+3] [Compound 127.6]
- Kd [1, 3]: < 1 nM
- Kd [2, 4]: < 1 nM

Structure (SMILES): CC(CCCC(=O)N1CCC(C(=O)O)(C(=O)NCC(=O)N2CCN(C(=O)CN3CCN(CC(=O)O)CCN(CC(=O)O)CCN(CC(=O)O)CC3)C[C@@H]2C(=O)NCCn2cc(C34CC(C(=O)Nc5nnc(S(N)(=O)=O)s5)(C3)C4)nn2)CC1)(c1ccc(O)cc1)c1ccc(O)cc1.[Lu+3] [Compound 107.6]
- Kd [1, 3]: > 10 nM
- Kd [2, 4]: < 1 nM

Structure (SMILES): NS(=O)(=O)c1nnc(NC(=O)C23CC(c4cn(CCNC(=O)[C@@H]5CN(C(=O)CN6CCN(CC(=O)O)CCN(CC(=O)O)CCN(CC(=O)O)CC6)CCN5C(=O)C[C@H](NC(=O)C[C@H](NC(=O)c5ccc(S(F)(F)(F)(F)F)cc5)C(=O)O)C(=O)O)nn4)(C2)C3)s1.[Lu+3] [Compound 109.16]
- Kd [1, 3]: 2.5 to 10 nM
- Kd [2, 4]: < 1 nM

Structure (SMILES): NS(=O)(=O)c1nnc(NC(=O)C23CC(c4cn(CCNC(=O)[C@@H]5CN(C(=O)CN6CCN(CC(=O)O)CCN(CC(=O)O)CCN(CC(=O)O)CC6)CCN5C(=O)CNC(=O)C5(C(=O)O)CCN(C(=O)CCCc6n[nH]c7ccccc67)CC5)nn4)(C2)C3)s1.[Lu+3] [Compound 112.5]
- Kd [1, 3]: > 10 nM
- Kd [2, 4]: 2.5 to 10 nM

Structure (SMILES): NS(=O)(=O)c1nnc(NC(=O)C23CC(c4cn(CCNC(=O)[C@@H]5CN(C(=O)CN6CCN(CC(=O)O)CCN(CC(=O)O)CC6)CCN5C(=O)C[C@H](NC(=O)C[C@H](NC(=O)CC5CC6(CCC6)C5)C(=O)O)C(=O)O)nn4)(C2)C3)s1.[Cu+2] [Compound 126.5]
- Kd ([1]; Chelated Metal: Cu (cold), 25° C., pH 7.4, read-out: CAXII KD): 1 to 2.5 nM
- Kd ([2]; Chelated Metal: Cu (cold); SPR, 25° C., pH 7.4; read-out: CAIX KD): < 1 nM

Structure (SMILES): NS(=O)(=O)c1nnc(NC(=O)C23CC(c4cn(CCNC(=O)[C@@H]5CN(C(=O)CN6CCN(CC(=O)O)CCN(CC(=O)O)CCN(CC(=O)O)CC6)CCN5C(=O)C[C@H](NC(=O)C[C@H](NCC5CC5)C(=O)O)C(=O)O)nn4)(C2)C3)s1.[Lu+3] [Compound 109.29]
- Kd [1, 3]: > 10 nM
- Kd [2, 4]: 2.5 to 10 nM

Structure (SMILES): CC(CCC(=O)N[C@@H](CC(=O)N[C@@H](CC(=O)N1CCN(C(=O)CN2CCN(CC(=O)O)CCN(CC(=O)O)CCN(CC(=O)O)CC2)C[C@H]1C(=O)NCCn1cc(C23CCC(C(=O)Nc4nnc(S(N)(=O)=O)s4)(C2)C3)nn1)C(=O)O)C(=O)O)(c1ccc(O)cc1)c1ccc(O)cc1.[Lu+3] [Compound 107.5]
- Kd [1, 3]: < 1 nM
- Kd [2, 4]: < 1 nM

Structure (SMILES): NS(=O)(=O)c1nnc(NC(=O)C23CCC(c4cn(CCNC(=O)[C@@H]5CN(C(=O)CN6CCN(CC(=O)O)CCN(CC(=O)O)CCN(CC(=O)O)CC6)CCN5C(=O)CC[C@H](NC(=O)C[C@H](NC(=O)CCC56CCC(CC5)C6)C(=O)O)C(=O)O)nn4)(CC2)CC3)s1.[Lu+3] [Compound 109.57]
- Kd [1, 3]: < 1 nM
- Kd [2, 4]: < 1 nM

Structure (SMILES): NS(=O)(=O)c1nnc(NC(=O)C23CC(c4cn(CCNC(=O)[C@@H]5CN(C(=O)CN6CCN(CC(=O)O)CCN(CC(=O)O)CCN(CC(=O)O)CC6)CCN5C(=O)C[C@H](NC(=O)C[C@H](NC(=O)c5n[nH]c6ccc(F)cc56)C(=O)O)C(=O)O)nn4)(C2)C3)s1.[Lu+3] [Compound 109.15]
- Kd [1, 3]: 2.5 to 10 nM
- Kd [2, 4]: < 1 nM

Structure (SMILES): CC(CCC(=O)N[C@@H](CC(=O)N[C@@H](CC(=O)N1CCN(C(=O)CC[C@H](C(=O)O)N2CCN(CC(=O)O)CCN(CC(=O)O)CCN(CC(=O)O)CC2)C[C@H]1C(=O)NCCn1cc(C23CC(C(=O)Nc4nnc(S(N)(=O)=O)s4)(C2)C3)nn1)C(=O)O)C(=O)O)(c1ccc(O)cc1)c1ccc(O)cc1.[Lu+3] [Compound 127]
- Kd [1, 3]: > 10 nM
- Kd [2, 4]: < 1 nM

Structure (SMILES): CC(CCCC(=O)N1CCC(C(N)=O)(C(=O)NCC(=O)NC2CCN(C(=O)CCOCCOCCOCCOCCN(CCOCCOCCOCCOCCC(=O)N3CCC(NC(=O)CNC(=O)C4(C(N)=O)CCN(C(=O)CCCC(C)(c5ccc(O)cc5)c5ccc(O)cc5)CC4)C(C(=O)NCCn4cc(C56CC(C(=O)Nc7nnc(S(N)(=O)=O)s7)(C5)C6)nn4)C3)C(=O)CNC(=O)CN3CCN(CC(=O)O)CCN(CC(=O)O)CCN(CC(=O)O)CC3)CC2C(=O)NCCn2cc(C34CC(C(=O)Nc5nnc(S(N)(=O)=O)s5)(C3)C4)nn2)CC1)(c1ccc(O)cc1)c1ccc(O)cc1.[Lu+3] (stereo not drawn) [Compound 131.7]
- Kd [1, 3]: 1 to 2.5 nM
- Kd [2, 4]: < 1 nM

Structure (SMILES): CC(CCC(=O)N[C@@H](CC(=O)N[C@@H](CC(=O)N[C@@H](CCCCn1cc(C23CCC(C(=O)Nc4nnc(S(N)(=O)=O)s4)(CC2)C3)nn1)C(=O)N1CCN(C(=O)CN2CCN(CC(=O)O)CCN(CC(=O)O)CCN(CC(=O)O)CC2)CC1)C(=O)O)C(=O)O)(c1ccc(O)cc1)c1ccc(O)cc1.[Lu+3] [Compound 100.13]
- Kd [1, 3]: < 1 nM
- Kd [2, 4]: < 1 nM

Structure (SMILES): NS(=O)(=O)c1nnc(NC(=O)C23CC(c4cn(CCNC(=O)[C@@H]5CN(C(=O)CN6CCN(CC(=O)O)CCN(CC(=O)O)CCN(CC(=O)O)CC6)CCN5C(=O)C[C@H](NC(=O)C[C@H](NC(=O)Cc5n[nH]c6ccccc56)C(=O)O)C(=O)O)nn4)(C2)C3)s1.[Lu+3] [Compound 109.10]
- Kd [1, 3]: 2.5 to 10 nM
- Kd [2, 4]: < 1 nM

Structure (SMILES): NS(=O)(=O)c1nnc(NC(=O)C23CC(c4cn(CCNC(=O)[C@@H]5CN(C(=O)CN6CCN(CC(=O)O)CCN(CC(=O)O)CCN(CC(=O)O)CC6)CCN5C(=O)C[C@H](Nc5ncc(C(=O)NCc6ccc(C7CC7)cc6)cn5)C(=O)O)nn4)(C2)C3)s1.[Lu+3] [Compound 111.3]
- Kd [1, 3]: > 10 nM
- Kd [2, 4]: 1 to 2.5 nM

Structure (SMILES): CC(CCC(=O)N[C@@H](CC(=O)N[C@@H](CC(=O)N[C@@H](CCCn1cc(C23CC(C(=O)Nc4nnc(S(N)(=O)=O)s4)(C2)C3)nn1)C(=O)NCCOCCOCCNC(=O)CN1CCN(CC(=O)O)CCN(CC(=O)O)CCN(CC(=O)O)CC1)C(=O)O)C(=O)O)(c1ccc(O)cc1)c1ccc(O)cc1.[Lu+3] [Compound 100.2]
- Kd [1, 3]: > 10 nM
- Kd [2, 4]: 1 to 2.5 nM

Structure (SMILES): NS(=O)(=O)c1nnc(NC(=O)C23CCC(c4cn(CCNC(=O)[C@@H]5CN(C(=O)CN6CCN(CC(=O)O)CCN(CC(=O)O)CCN(CC(=O)O)CC6)CCN5C(=O)CC[C@H](NC(=O)C[C@H](NC(=O)c5ccc(C6CC6)nc5)C(=O)O)C(=O)O)nn4)(CC2)CC3)s1.[Lu+3] [Compound 109.56]
- Kd [1, 3]: 1 to 2.5 nM
- Kd [2, 4]: < 1 nM

Structure (SMILES): NC(=O)C1(C(=O)NCC(=O)N2CCN(C(=O)CN3CCN(CC(=O)O)CCN(CC(=O)O)CCN(CC(=O)O)CC3)C[C@H]2C(=O)NCCn2cc(C34CC(C(=O)Nc5nnc(S(N)(=O)=O)s5)(C3)C4)nn2)CCN(C(=O)c2ccc(C3CC3)nn2)CC1.[Lu+3] [Compound 113]
- Kd [1, 5]: > 10 nM
- Kd [2, 6]: 2.5 to 10 nM

Structure (SMILES): CC(CCC(=O)N[C@@H](CC(=O)N[C@@H](CC(=O)N[C@@H](CCCCN1CCN(c2ccc(C(=O)Nc3nnc(S(N)(=O)=O)s3)cc2)CC1)C(=O)NCCOCCOCCNC(=O)CN1CCN(CC(=O)O)CCN(CC(=O)O)CCN(CC(=O)O)CC1)C(=O)O)C(=O)O)(c1ccc(O)cc1)c1ccc(O)cc1.[Lu+3] [Compound 121]
- Kd [1, 5]: > 10 nM
- Kd [2, 6]: < 1 nM
